Source: ChEMBL document CHEMBL1147188, “Metal complexes of retinoid derivatives with antiproliferative activity: synthesis, characterization and DNA interaction studies” (Eur J Med Chem, 2007)

How the values were obtained:
Homo sapiens = species: Homo sapiens; experiment: Binding affinity to DNA
[1] = Partition coefficient, log P of the compound; type: physicochemical; details: octanol/water
PBMC = experiment: Growth inhibition of human PBMC after 48 hrs by XTT assay; type: cell-based

With CC1=C(/C=C/C(C)=C\C=C\C(C)=C\C=N/NC(N)=S)C(C)(C)CCC1 the Kb (Homo sapiens) was 8.3 10^5/M, the logP [1] was 1.05 and the Activity (PBMC) was “Non-toxic”.
